In patent US9550763B2, “Heterocyclic ring and carbocyclic derivative” (Shionogi & Co., Ltd., priority 2012, dated 2017) one finds IC50 data, which are given here for 25 compounds.

Structures are written as SMILES.

In this test the target is human P2X3 receptor (Homo sapiens (Human), UniProt P56373). Briefly: Evaluation of human P2X3 receptor inhibitory activity (Test Example 1-1, FDSS 3000, 96-well, 50 nM ATP). The test is classed as cell-based. The following applies: human P2X3 receptor in C6BU-1 cells; Test Example 1-1 (compounds I-001 to I-300). In short, it runs like this: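 C6BU-1 cells stably expressing human P2X3, loaded with 4 μM Fluo-3-AM (pH 7.5), preincubated 5 min with compound before 50 nM ATP challenge; fluorescence followed 4 min on FDSS 3000. IC50 derived from peak/baseline fluorescence ratio, no-compound as 0% and buffer-instead-of-ATP as 100% inhibition.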
Sequence of human P2X3 receptor (P56373 whole entry): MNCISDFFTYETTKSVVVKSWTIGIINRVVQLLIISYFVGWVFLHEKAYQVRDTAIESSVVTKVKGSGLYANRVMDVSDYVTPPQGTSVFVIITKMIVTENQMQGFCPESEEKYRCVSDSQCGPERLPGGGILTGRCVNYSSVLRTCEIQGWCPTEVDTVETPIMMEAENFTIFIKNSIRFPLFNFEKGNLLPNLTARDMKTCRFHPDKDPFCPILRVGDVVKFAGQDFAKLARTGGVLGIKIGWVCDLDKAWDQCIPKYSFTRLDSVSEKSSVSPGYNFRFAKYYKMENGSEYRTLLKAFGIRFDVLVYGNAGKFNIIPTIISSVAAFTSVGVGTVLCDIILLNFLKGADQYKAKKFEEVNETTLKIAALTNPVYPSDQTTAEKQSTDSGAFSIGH

As to `Cc1cc(/N=c2\[nH]cc(NC(=O)C3CCOCC3)c(=O)n2Cc2ccc(Cl)cc2)ccc1Oc1ccon1` [Compound I-248], the IC50 – broadly, the concentration that inhibits the measured activity by half – was 6 nM.

With `Cc1cc(Oc2ccc(/N=c3\[nH]cc(NC(=O)C4CCOCC4)c(=O)n3Cc3ccc(Cl)cc3)cc2F)no1` [Compound I-249], half-maximal inhibition (IC50) was put at 6 nM. This lies in the single-digit nanomolar range.

Compound `CCN/C(=N\C#N)Nc1c[nH]/c(=N\c2ccc(Oc3ccon3)cc2)n(Cc2ccc(Cl)cc2)c1=O` [Compound I-251] yielded an IC50 of 118 nM.

For `O=C(Nc1c[nH]/c(=N\c2ccc(Oc3ccon3)cc2)n(Cc2ccc(Cl)cc2)c1=O)c1ccccc1` [Compound I-253], the IC50 was 61 nM.

`O=C(Nc1c[nH]/c(=N\c2ccc(Oc3ccon3)cc2)n(Cc2ccc(Cl)cc2)c1=O)c1ccccn1` [Compound I-254] registered an IC50 of 868 nM.

In turn, `Cc1cc(C(=O)Nc2c[nH]/c(=N\c3ccc(Oc4ccon4)cc3)n(Cc3ccc(Cl)cc3)c2=O)on1` [Compound I-255] had an IC50 of 147 nM.

With `Cc1noc(C)c1C(=O)Nc1c[nH]/c(=N\c2ccc(Oc3ccon3)cc2)n(Cc2ccc(Cl)cc2)c1=O` [Compound I-256], the IC50 was 14 nM.

Turning to `CNC(=O)c1c[nH]/c(=N\c2ccc(Oc3nc(C)ns3)cc2)n(Cc2ccc(Cl)cc2)c1=O` [Compound I-257], half-maximal inhibition (IC50) required 41 nM.

Regarding `CCn1c(=O)cc(Nc2ccc(Oc3cccc(C(=O)O)c3)c(C)n2)n(Cc2ccc(Cl)cc2)c1=O` [Compound I-258], half-maximal inhibition (IC50) required 27 nM.

For `CCCn1c(=O)cc(Nc2ccc(Oc3cccc(C(=O)O)c3)c(C)n2)n(Cc2ccc(Cl)cc2)c1=O` [Compound I-259], inhibition was half-maximal at 16 nM (IC50). Against the preceding compound, the IC50 is about 1.7-fold lower.

`CCn1c(=O)cc(Nc2ccc(Oc3cccc(C(N)=O)c3)c(C)n2)n(Cc2ccc(Cl)cc2)c1=O` [Compound I-260] returned a half-maximal inhibitory concentration (IC50) of 36 nM.

`N#Cc1c[nH]/c(=N\c2ccc(Oc3ccc(F)cn3)cc2)n(Cc2ccc(Cl)cc2)c1=O` [Compound I-261] showed an IC50 of 498 nM. This IC50 is about 14-fold higher than that of the compound before.

In turn, `CCc1oc2ccc(/N=c3\[nH]cc(NC(=O)C4CCOCC4)c(=O)n3Cc3ccc(Cl)cn3)cc2c1C` [Compound I-262] returned an IC50 of 98 nM.

With `Cc1nocc1C(=O)Nc1c[nH]/c(=N\c2ccc(Oc3ccon3)cc2)n(Cc2ccc(Cl)cc2)c1=O` [Compound I-264], inhibition was half-maximal at 15 nM (IC50). Against the preceding compound, the IC50 is about 6.5-fold lower.

In the case of `O=C(Nc1c[nH]/c(=N\c2ccc(Oc3ccon3)cc2)n(Cc2ccc(Cl)cc2)c1=O)c1cccnc1` [Compound I-265], 48 nM corresponded to half-maximal inhibition (IC50).

Compound `O=C(Nc1c[nH]/c(=N\c2ccc(Oc3ccon3)cc2)n(Cc2ccc(Cl)cc2)c1=O)c1ccncc1` [Compound I-266] gave an IC50 of 68 nM.

In the case of `O=C(Nc1c[nH]/c(=N\c2ccc(Oc3ccon3)cc2)n(Cc2ccc(Cl)cc2)c1=O)c1ccoc1` [Compound I-267], the IC50 came to 45 nM.

On to `O=C(Nc1c[nH]/c(=N\c2ccc(Oc3ccon3)cc2)n(Cc2ccc(Cl)cc2)c1=O)c1cocn1` [Compound I-268], for which 85 nM corresponded to half-maximal inhibition (IC50).

With `Cc1oncc1C(=O)Nc1c[nH]/c(=N\c2ccc(Oc3ccon3)cc2)n(Cc2ccc(Cl)cc2)c1=O` [Compound I-269], the IC50 is 16 nM.

`CC(c1ccc(Cl)cc1)n1cc(C(=O)NC2CCOCC2)c(=O)nc1Nc1ccc(Oc2cccc(F)n2)cc1` (stereo not shown) [Compound I-270] displayed an IC50 of 175 nM.

As for `O=c1c(-c2ccccn2)c[nH]/c(=N\c2ccc(Oc3ccon3)cc2)n1Cc1ccc(Cl)cc1` [Compound I-272], half-maximal inhibition (IC50) required 211 nM. This IC50 and that of the compound before are within 1.5-fold of each other.

In the case of `O=c1c(-c2cccnc2)c[nH]/c(=N\c2ccc(Oc3ccon3)cc2)n1Cc1ccc(Cl)cc1` [Compound I-273], half-maximal inhibition (IC50) was put at 201 nM.

The compound `O=c1c(-c2ccncc2)c[nH]/c(=N\c2ccc(Oc3ccon3)cc2)n1Cc1ccc(Cl)cc1` [Compound I-274] displayed an IC50 of 356 nM.

In turn, `O=C(Nc1c[nH]/c(=N\c2ccc(Oc3ccon3)cc2)n(Cc2ccc(Cl)cn2)c1=O)C1CCOCC1` [Compound I-275] returned an IC50 of 51 nM.

With `CCC(=O)Nc1c[nH]/c(=N\c2ccc(Oc3ccnc(C#N)c3)cc2)n(Cc2ccc(Cl)cn2)c1=O` [Compound I-276], half-maximal inhibition (IC50) required 165 nM.
